Test results published in PubChem BioAssay AID248 (DTP/NCI, 2004).
Inconclusive results and toxic doses are left out. Cut-off read from the data, not from the text of the source: active = T/C of 150% or more; inactive = T/C below 125%.

Tested on: L1210 leukemia ip in BDF1 mice, survival T/C
Test: NCI In Vivo Anticancer Drug Screen. Data for tumor model L1210 Leukemia (intraperitoneal) in B6D2F1 (BDF1) mice
Conditions: endpoint: mean survival time, higher = longer survival
Summary of the method: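 Tumor was transplanted into mice, which were then dosed with test compound or vehicle alone. Survival was recorded for each group, and the treated figure was expressed relative to the control figure.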

[1] = dose: 100.0 mg/kg/injection, schedule: Q01DX001 (ip), vehicle: carboxymethylcellulose (CMC)
[2] = dose: 200.0 mg/kg/injection, schedule: Q01DX001 (ip), vehicle: carboxymethylcellulose (CMC)
[3] = dose: 400.0 mg/kg/injection, schedule: Q01DX001 (ip), vehicle: carboxymethylcellulose (CMC)
[4] = dose: 100.0 mg/kg/injection, schedule: Q04DX003 (ip), vehicle: saline with Tween-80
[5] = dose: 100.0 mg/kg/injection, schedule: Q01DX009 (ip), vehicle: saline with Tween-80
[6] = dose: 100.0 mg/kg/injection, schedule: Q04DX003 (ip), vehicle: saline
[7] = dose: 200.0 mg/kg/injection, schedule: Q01DX009 (ip), vehicle: saline with Tween-80
[8] = dose: 200.0 mg/kg/injection, schedule: Q04DX003 (ip), vehicle: saline
[9] = dose: 400.0 mg/kg/injection, schedule: Q04DX003 (ip), vehicle: saline
[10] = dose: 100.0 mg/kg/injection, schedule: Q04DX003 (ip), vehicle: Klucel (hydroxypropylcellulose) (HPC)
[11] = dose: 200.0 mg/kg/injection, schedule: Q04DX003 (ip), vehicle: Klucel (hydroxypropylcellulose) (HPC)
[12] = dose: 400.0 mg/kg/injection, schedule: Q04DX003 (ip), vehicle: Klucel (hydroxypropylcellulose) (HPC)
[13] = dose: 50.0 mg/kg/injection, schedule: Q01DX009 (ip), vehicle: Klucel (hydroxypropylcellulose) (HPC)
[14] = dose: 100.0 mg/kg/injection, schedule: Q01DX009 (ip), vehicle: Klucel (hydroxypropylcellulose) (HPC)
[15] = dose: 200.0 mg/kg/injection, schedule: Q01DX009 (ip), vehicle: Klucel (hydroxypropylcellulose) (HPC)
[16] = dose: 400.0 mg/kg/injection, schedule: Q01DX009 (ip), vehicle: Klucel (hydroxypropylcellulose) (HPC)

Measured: T/C

C[C@H](OC(=O)CCl)[C@@H](C)OC(=O)CCl
inactive: dose: 50.0 mg/kg/injection, schedule: Q01DX001 (sc), vehicle: carboxymethylcellulose (CMC) 109 % of control | dose: 100.0 mg/kg/injection, schedule: Q01DX001 (sc), vehicle: carboxymethylcellulose (CMC) 88 % of control

O=C(Cc1ccccc1)NCCc1ccc(-c2ccccc2)cc1
inactive: [1] 94 % of control | [2] 96 % of control | [3] 86 % of control

CC(=O)OC1C=CCC2C(=O)c3cc4ccccc4cc3C(=O)C12 (stereo not given)
inactive: dose: 100.0 mg/kg/injection, schedule: Q01DX001 (ip), vehicle: other 100 % of control | dose: 200.0 mg/kg/injection, schedule: Q01DX001 (ip), vehicle: other 104 % of control

CCCCCC[As](=O)(O)O
inactive: dose: 1.5 mg/kg/injection, schedule: Q01DX001 (ip), vehicle: carboxymethylcellulose (CMC) 98 % of control | dose: 3.0 mg/kg/injection, schedule: Q01DX001 (ip), vehicle: carboxymethylcellulose (CMC) 93 % of control | dose: 6.0 mg/kg/injection, schedule: Q01DX001 (ip), vehicle: carboxymethylcellulose (CMC) 102 % of control

O=C(O)c1c(Cl)c(Cl)cc(Cl)c1Cl
inactive: dose: 75.0 mg/kg/injection, schedule: Q01DX001 (ip), vehicle: saline 93 % of control | dose: 150.0 mg/kg/injection, schedule: Q01DX001 (ip), vehicle: saline 93 % of control | dose: 300.0 mg/kg/injection, schedule: Q01DX001 (ip), vehicle: saline 96 % of control

CCCCNC(c1ccc(C[N+]2(C)CCCC2)cc1)C(Cl)(Cl)Cl (stereo not given)
inactive: dose: 10.0 mg/kg/injection, schedule: Q01DX001 (ip), vehicle: saline 95 % of control | dose: 20.0 mg/kg/injection, schedule: Q01DX001 (ip), vehicle: saline 95 % of control

NOc1ccc([N+](=O)[O-])cc1[N+](=O)[O-]
inactive: [4] 108 % of control

CC(C)CN(CCCCO)CC(C)C
inactive: [5] 95 % of control | [6] 100 % of control | [7] 103 % of control | [8] 100 % of control | [9] 100 % of control

Cc1ccc(C[N+](C)(C)C)cc1
inactive: dose: 9.38 mg/kg/injection, schedule: Q01DX001 (ip), vehicle: saline 103 % of control | dose: 18.75 mg/kg/injection, schedule: Q01DX001 (ip), vehicle: saline 100 % of control | dose: 37.5 mg/kg/injection, schedule: Q01DX001 (ip), vehicle: saline 100 % of control

COc1cc2c(cc1OC)/C(=N/N)CCC2
inactive: dose: 50.0 mg/kg/injection, schedule: Q04DX003 (ip), vehicle: Klucel (hydroxypropylcellulose) (HPC) 95 % of control

CC1(C)CC(=O)CC(C)(C#N)C1 (stereo not given)
inactive: dose: 6.25 mg/kg/injection, schedule: Q01DX009 (ip), vehicle: Klucel (hydroxypropylcellulose) (HPC) 97 % of control | dose: 12.5 mg/kg/injection, schedule: Q01DX009 (ip), vehicle: Klucel (hydroxypropylcellulose) (HPC) 99 % of control | dose: 12.5 mg/kg/injection, schedule: Q04DX003 (ip), vehicle: Klucel (hydroxypropylcellulose) (HPC) 91 % of control | dose: 25.0 mg/kg/injection, schedule: Q04DX003 (ip), vehicle: Klucel (hydroxypropylcellulose) (HPC) 93 % of control

CNC(CCc1ccccc1)C(=O)O (stereo not given)
inactive: dose: 100.0 mg/kg/injection, schedule: Q01DX009 (ip), vehicle: saline sonified 98 % of control | [4] 100 % of control | dose: 200.0 mg/kg/injection, schedule: Q01DX009 (ip), vehicle: saline sonified 101 % of control | dose: 200.0 mg/kg/injection, schedule: Q04DX003 (ip), vehicle: saline with Tween-80 99 % of control | dose: 400.0 mg/kg/injection, schedule: Q01DX009 (ip), vehicle: saline sonified 93 % of control | dose: 400.0 mg/kg/injection, schedule: Q04DX003 (ip), vehicle: saline with Tween-80 99 % of control

Nc1cc2scnc2c(N)n1
inactive: dose: 100.0 mg/kg/injection, schedule: Q01DX001 (ip), vehicle: Klucel (hydroxypropylcellulose) (HPC) 94 % of control | dose: 200.0 mg/kg/injection, schedule: Q01DX001 (ip), vehicle: Klucel (hydroxypropylcellulose) (HPC) 91 % of control | dose: 400.0 mg/kg/injection, schedule: Q01DX001 (ip), vehicle: Klucel (hydroxypropylcellulose) (HPC) 86 % of control

COc1ccc(OC)c2c1C(=O)c1ccccc1C2=O
inactive: dose: 25.0 mg/kg/injection, schedule: Q01DX009 (ip), vehicle: saline with Tween-80 107 % of control | dose: 50.0 mg/kg/injection, schedule: Q01DX001 (ip), vehicle: carboxymethylcellulose (CMC) 102 % of control | dose: 50.0 mg/kg/injection, schedule: Q01DX009 (ip), vehicle: saline with Tween-80 104 % of control | [1] 108 % of control | [5] 104 % of control | [2] 102 % of control | [7] 107 % of control | [3] 113 % of control | dose: 400.0 mg/kg/injection, schedule: Q01DX009 (ip), vehicle: saline with Tween-80 111 % of control

COc1ccc(Sc2ccccc2N)c([N+](=O)[O-])c1
inactive: [10] 100 % of control | [11] 97 % of control | [12] 92 % of control

CCOc1ccc(NC(C)=O)cc1
inactive: [10] 96 % of control | [11] 104 % of control | [12] 115 % of control

CCNC(C)(C)C(SSSC(c1cccs1)C(C)(C)NCC)c1cccs1 (stereo not given)
inactive: dose: 25.0 mg/kg/injection, schedule: Q01DX009 (ip), vehicle: other 108 % of control | dose: 50.0 mg/kg/injection, schedule: Q01DX009 (ip), vehicle: other 103 % of control | dose: 100.0 mg/kg/injection, schedule: Q01DX009 (ip), vehicle: other 97 % of control | [6] 98 % of control

CC(C)(C)OC(=O)/N=N/C(=O)OC(C)(C)C
inactive: [1] 102 % of control | [2] 94 % of control | [3] 94 % of control

COC1OC(C)C(OS(C)(=O)=O)C2OC(C)(C)OC12 (stereo not given)
inactive: [13] 103 % of control | [14] 97 % of control | [10] 124 % of control | [15] 100 % of control | [11] 107 % of control | [16] 112 % of control | [12] 101 % of control

CCCCOC(=O)c1ccc(NC(=O)NC)cc1
inactive: [14] 100 % of control | [15] 101 % of control | [16] 101 % of control

CCOC(=O)c1c(C)oc(=O)c(Br)c1C
inactive: [6] 97 % of control | [8] 100 % of control | [9] 94 % of control

Cc1nc2ccccc2c2ccccc12
inactive: [13] 111 % of control | [14] 105 % of control | [15] 111 % of control

CC(=O)C1=C(O)C2C3c4c[nH]c5cccc(c45)CC3C(C)(C)N2C1=O (stereo not given)
inactive: dose: 0.25 mg/kg/injection, schedule: Q01DX001 (ip), vehicle: saline 101 % of control | dose: 0.5 mg/kg/injection, schedule: Q01DX001 (ip), vehicle: saline 103 % of control | dose: 1.0 mg/kg/injection, schedule: Q01DX001 (ip), vehicle: saline 101 % of control | dose: 2.0 mg/kg/injection, schedule: Q01DX001 (ip), vehicle: saline 105 % of control
